Data set [1] relates to CV-1P (African monkey green kidney fibroblasts cells). The data set is described as follows: In vitro transfection of plasmid DNA, β-galactosidase activity per well. Format: cell-based. The note with it: CVI-P. The method, then: Transfer of plasmid DNA by various compounds was investigated by using CV-1P (African monkey green kidney fibroblasts cells) and D407 (human retinal pigment epithelial) cells.
The cells were cultured in Dulbecco's modified Eagle's medium (DMEM, Gibco), supplemented with 10% fetal bovine serum (FBS), penicillin/streptomycin (100 units/ml and 100 μg/ml respectively) and 2 mM L-glutamine for D 407 cell line. Cell cultures were maintained at 37° C. in a 7% CO2/air incubator. The cells were collected, counted and seeded in growth medium (100 μl) into 96-well culture plate, 20 000 cells per well. One day later the medium was replaced with fresh medium without serum (150 μl)
In the case of confluent CV1-P cells the medium (with of without serum) was changed on fourth day of cell growth before the transfection.
The complexes at different derivative/DNA charge ratios for transfection procedure were prepared just before use in 50 mM MES—50 mM HEPES—75 mM NaCl buffer, pH 7.2 in separate 96 well plates. One hour after changing the serum-free medium with 10% serum the complexes were added to the cells at […]. Dose of DNA per well was 0.6 μg. After 5 h the complexes were removed, the cells were washed with PBS, and the normal growth medium was added. After 45 h of incubation at 37° C. the cells were lysed with 2% Triton X 100, twice deep frozen and the β-galactosidase activity in each well was determined spectrofotometrically with ELx800 automated microplate reader (Bio-Tex Instruments Inc., Winooski, Vt. USA) by monitoring the hydrolysis of o-nitrophenylgalactopyranoside (oNPG) at 405 nm. Purified β-galactosidase from E.coli was used to construct a standard curve and to calculate […] activity in the transfected cells. […] Transfection efficiencies are given as percentage in comparison to transfection efficiency of Lipofectin^R.

Data set [2] deals with D407 (human retinal pigment epithelial) cells. Described as above. Format: cell-based. Conditions: D 407.
Experimental: The complexes at different derivative/DNA charge ratios for transfection procedure were prepared just before use in 50 mM MES—50 mM HEPES—75 mM NaCl buffer, pH 7.2 in separate 96 well plates. One hour after changing the serum-free medium with 10% serum the complexes were added to the cells at 370C. Dose of DNA per well was 0.6 μg. After 5 h the complexes were removed, the cells were washed with PBS, and the normal growth medium was added. After 45 h of incubation at 37° C. the cells were lysed with 2% Triton X 100, twice deep frozen and the β-galactosidase activity in each well was determined spectrofotometrically with ELx800 automated microplate reader (Bio-Tex Instruments Inc., Winooski, Vt. USA) by monitoring the hydrolysis of o-nitrophenylgalactopyranoside (oNPG) at 405 nm. Purified β-galactosidase from E.coli was used to construct a standard curve and to calculate 9-galactosidase activity in the transfected cells. […] Transfection efficiencies are given as percentage in comparison to transfection efficiency of Lipofectin^R.
The test system of data set [3] is D 407 cells. Briefly: Cytotoxicity of amphiphile/DNA complexes, percentage of survived cells. The class given is cell-based, human. Details: concentration or dose not given beside the values.
Data set [4] concerns plasmid DNA. The data set is described as follows: DNA condensation/complexation, EtBr displacement assay. Format: binding. The method, then:
The ability of the cationic amphiphiles to condense DNA was assessed with an EtBr displacement assay. Briefly, in 96 well plates plasmid DNA (0.6 μg per well) was reacted with 0.002% EtBr in 20 mM HEPES—150 mM NaCl buffer, pH 7.4 and fluorescence intensity was measured at 530 nm (excitation) and 590 nm (emission). Intercalation of EtBr molecules between the base pairs of the DNA double helix results in increased fluorescence signal. Immediately thereafter, the cationic liposomes were added to form complexes at different +/−charge ratios and the quenching of fluorescence intensity of EtBr was monitored. Condensation of DNA upon complexation with liposomes results in the displacement of EtBr from DNA and in decreased fluorescence signal. Fluorescence was measured using FL 500 microplate fluorescence reader (Bio-Tek Instruments Inc., Winooski, Vt., USA).
The values are expressed as percentage of the maximum fluorescence signal when EtBr bound to DNA in the absence of an amphiphile. Each data point is from at least triplicate experiment ±S.D.

In data set [5] the test system is CVI-P cells. Briefly: Cytotoxicity of amphiphile/DNA complexes, percentage of survived cells.
The mark [6] stands for this setting: amphiphile/DNA +/− charge ratio 0.5.
Setting [7] is: amphiphile/DNA +/− charge ratio 1.
The mark [8] stands for this setting: amphiphile/DNA +/− charge ratio 2.
[9] abbreviates: amphiphile/DNA +/− charge ratio 4.
The mark [10] stands for this setting: amphiphile/DNA +/− charge ratio 8.

Here are results for 18 compounds from patent US20030064954A1, “Cationic amphiphilic 1,4-dihydropyridine derivatives useful for delivery of nucleotide containing compounds” (priority 2000, published 2003).

Molecules are shown by their SMILES.

In general, melting point refers to the temperature, or range, at which the solid turns liquid. For the compound `Br.CCOC(=O)C1=C(C)NC(C)=C(C(=O)OCC)C1c1ccc[n+](Cc2ccc([N+](=O)[O-])cc2)c1.[Br-]`, the melting point is 212 to 213 °C (dec.).
On the same count and under the same terms, the same measure for `Br.CCCOCCOC(=O)C1=C(C)NC(C)=C(C(=O)OCCOCCC)C1c1ccc[n+](CC(=O)OCC)c1.[Br-]`: 144 to 146 °C; for `Br.CCOC(=O)C[n+]1cccc(C2C(C(=O)OC)=C(C)NC(C)=C2C(=O)OC)c1.[Br-]`: 180 °C (dec.).
On the same count and under the same terms, the same measure for `Br.CCCCCCCCCCCCCCCC[n+]1cccc(C2C(C(=O)OC(C)CC)=C(C)NC(C)=C2C(=O)OC(C)CC)c1.[Br-]` (centres unmarked): 159 to 165 °C; for `CC1=C(C(=O)OC(C)(C)C)C(c2ccc[n+](C)c2)C(C(=O)OC(C)(C)C)=C(C)N1.I.[I-]` [Example 2c, 3′,5′-Bis[(1,1-dimethylethoxy)carbonyl]-1′,4′-dihydro-1,2′,6′-trimethyl-3,4′-bipyridinium iodide]: 166 to 169 °C.
With `Br.CCCCCCCCCCCCCCCCOC(=O)C1=C(C)NC(C)=C(C(=O)OCCCCCCCCCCCCCCCC)C1c1ccc[n+](CC(=O)c2ccccc2)c1.[Br-]`, the melting point lay within 148 to 150 °C.
As to `CCCCOC(=O)C1=C(C)NC(C)=C(C(=O)OCCCC)C1c1ccc[n+](C)c1.I.[I-]` [Example 2a, 3′,5′-Bis(butoxycarbonyl)-1′,4′-dihydro-1,2′,6′-trimethyl-3,4′-bipyridinium iodide], the melting point fell in the range of 161 to 164 °C.
The same measure, in the same setting: to `CCCOCCOC(=O)C1=C(C)NC(C)=C(C(=O)OCCOCCC)C1c1ccc[n+](C)c1.I.[I-]` [VIII, 1′,4′-Dihydro-1,2′,6′-trimethyl-3′,5′-bis[(2-propoxyethoxy)-carbonyl]-3,4′-bipyridinium iodide] belongs 59 to 61 °C; to `CCOC(=O)C1=C(C)NC(C)=C(C(=O)OCC)C1c1cccc[n+]1C.I.[I-]` [Example 2v, 3′,5′-Bis(ethoxycarbonyl)-1′,4′-dihydro-1,2′,6′-trimethyl-2,4′-bipyridinium iodide], 197 to 199 °C.
Regarding `CCCCCCCCCCCCCCCCOC(=O)C1=C(C[n+]2ccccc2)NC(C[n+]2ccccc2)=C(C(=O)OCCCCCCCCCCCCCCCC)C1c1ccccc1.[Br-].[Br-]` [XXV, 1,1′-[(3,5-Dihexadecyloxycarbonyl-4-phenyl-1,4-dihydropyridine-2,6-diyl)dimethylene]bispyridinium dibromide], the transfection efficiency in data set [1] (setting [6]) is 0,23 β-galactosidase units per well; in data set [1] (setting [7]) it was 0,24 β-galactosidase units per well; in data set [1] (setting [8]), 17,5 β-galactosidase units per well; in data set [1] (setting [9]), 15,15 β-galactosidase units per well; in data set [1] (setting [10]), 9,04 β-galactosidase units per well; in data set [2] (setting [6]) it was 0,57 β-galactosidase units per well. Also, the transfection efficiency is on record as 0,31 β-galactosidase units per well in data set [2] (setting [7]), 066 β-galactosidase units per well in data set [2] (setting [8]), 2,05 β-galactosidase units per well in data set [2] (setting [9]) and 2,47 β-galactosidase units per well in data set [2] (setting [10]). Also, the “cytotoxicity as a percentage of survived cells” value (“cytotoxicity as a percentage” below) in data set [3] (setting [6]) was 97,52%; in data set [3] (setting [7]) it was 97,73%; in data set [3] (setting [8]), 101,48%; in data set [3] (setting [9]), 89,12%; in data set [3] (setting [10]), 62,05%; in data set [5] (setting [6]) it was 92,82%. Besides, the “cytotoxicity as a percentage” value was 99,29% in data set [5] (setting [7]), 101,03% in data set [5] (setting [8]), 107,03% in data set [5] (setting [9]) and 100,65% in data set [5] (setting [10]). Also, the “complexation, percentage of the maximum fluorescence signal when EtBr bound to DNA in the absence of an amphiphile” value in data set [4] (setting [6]) is 94,16%; in data set [4] (setting [7]), 89,06%; in data set [4] (setting [8]), 83,1%; in data set [4] (setting [9]), 77,14%; in data set [4] (setting [10]), 71,37%.
On to `CCCCCCCC/C=C\CCCCCCCC(=O)OCC(C[N+](C)(C)C)OC(=O)CCCCCCC/C=C\CCCCCCCC.[Cl-]` (centres unmarked) [DOTAP, N-(1-(2,3-dioleoyloxy)propyl)-N,N,N-trimethylammoniummethyl-sulfate, reference compound], for which the transfection efficiency in data set [1] (setting [6]) is on record as 0,61 β-galactosidase units per well; in data set [1] (setting [7]), 0,9 β-galactosidase units per well; in data set [1] (setting [8]) it was 15,58 β-galactosidase units per well; in data set [1] (setting [9]), 10,5 β-galactosidase units per well; in data set [1] (setting [10]) it was 3,19 β-galactosidase units per well; in data set [2] (setting [6]) it was 0,7 β-galactosidase units per well. The transfection efficiency in data set [2] (setting [7]) is 4,8 β-galactosidase units per well; in data set [2] (setting [8]) it was 25,05 β-galactosidase units per well; in data set [2] (setting [9]) it was 19,6 β-galactosidase units per well; in data set [2] (setting [10]), 4,92 β-galactosidase units per well. The “cytotoxicity as a percentage” value in data set [3] (setting [6]) was 85,08%; in data set [3] (setting [7]), 87,48%; in data set [3] (setting [8]), 80,32%; in data set [3] (setting [9]), 81,34%; in data set [3] (setting [10]) it was 76,11%; in data set [5] (setting [6]) it was 92,45%. Besides, the “cytotoxicity as a percentage” value in data set [5] (setting [7]) is on record as 92,09%; in data set [5] (setting [8]), 91,87%; in data set [5] (setting [9]), 97,89%; in data set [5] (setting [10]), 102,3%. Besides, the “complexation, percentage of the maximum fluorescence signal when EtBr bound to DNA in the absence of an amphiphile” value in data set [4] (setting [6]) is recorded as 86,72%; in data set [4] (setting [7]), 76,11%; in data set [4] (setting [8]), 69,15%; in data set [4] (setting [10]), 65,47%.
Compound `Br.CCCCCCCCCCCCCCCC[n+]1ccccc1C1C(C(=O)OCC)=C(C)NC(C)=C1C(=O)OCC.[Br-]` registered a melting point of 117 to 121 °C.
Still for that read-out and setting: to `Br.CCOC(=O)C1=C(C)NC(C)=C(C(=O)OCC)C1c1ccc[n+](CCCCCCCCCCC(=O)O)c1.[Br-]` belongs 134 to 136 °C.
Same read-out and setting: the same measure for `Br.CCCCCCCCCCCCCCCC[n+]1ccc(C2C(C(=O)OCC)=C(C)NC(C)=C2C(=O)OCC)cc1.[Br-]`: 95 to 98 °C; for `CCOC(=O)C1=C(C)NC(C)=C(C(=O)OCC)C1c1ccc[n+](-c2ccc([N+](=O)[O-])cc2[N+](=O)[O-])c1.Cl.[Cl-]`: 178 to 180 °C.
On the same count and under the same terms, the same measure for `Br.CCCCCCCCCCCCCCCC[n+]1cccc(C2C(C(=O)OCc3ccc([N+](=O)[O-])cc3)=C(C)NC(C)=C2C(=O)OCc2ccc([N+](=O)[O-])cc2)c1.[Br-]`: 89 to 93 °C; for `CCCCCCC[n+]1cccc(C2C(C(=O)OCC)=C(C)NC(C)=C2C(=O)OCC)c1.I.[I-]` [Example 5a, 3′,5′-Bis(ethoxycarbonyl)-1-heptyl-1′,4′-dihydro-2′,6′-dimethyl-3,4′-bipyridinium iodide]: 165 to 167 °C.
`CC1=C(C(=O)OCc2ccc([N+](=O)[O-])cc2)C(c2ccc[n+](C)c2)C(C(=O)OCc2ccc([N+](=O)[O-])cc2)=C(C)N1.I.[I-]` had a melting point of 202 to 203 °C.
